These are literature values, as cited in US20240180834A1, “DEVELOPMENT OF COVID-19 VACCINE USING A DUAL TLR LIGAND LIPOSOME ADJUVANT” (priority 2021, published 2024).

Molecules are shown by their SMILES.

The conditions of the data set: earlier work.

`CCCCCCCCCCCCCCCCCC(=O)NCCCCOn1c(CCCC)nc2c(N)nc3ccccc3c21` [3M-052, N-[4-(4-amino-2-butylimidazo[4,5-c]quinolin-1-yl)oxybutyl]octadecanamide]: the “type of immune response elicited by the TLR agonist in the nanoliposome adjuvant” value is given as “elicited a robust systemic Th1 response”.
